Measured values published in patent US8946266B2, “Substituted triazole and imidazole derivatives as gamma secretase modulators” (Janssen Pharmaceuticals, Inc., priority 2009, dated 2015).
Like-named read-outs stand apart in the source and are kept apart here.

Assays:
[1] = system: Aβtotal; test: γ-secretase-modulating activity, Method 2: Aβtotal Alphalisa in supernatant of SKNBE2 cells carrying APP 695-wild type (Table 3b); assay type: cell-based; conditions: overnight, read-out: IC50 Aβtot
Outline: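 SKNBE2 cells expressing wild-type APP 695 were incubated overnight at 37 °C, 5% CO2 with test compound at a range of concentrations. Aβtotal in supernatant was measured by AlphaLISA sandwich (N-terminal JRF/AβN/25 acceptor, biotinylated mid-region 4G8 donor); IC50 from 4-parameter fit of percent control versus log concentration.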

[2] = system: Aβ42; test: γ-secretase-modulating activity, Method 2: Aβ42 Alphalisa in supernatant of SKNBE2 cells carrying APP 695-wild type (Table 3b); assay type: cell-based; conditions: overnight
Outline: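 SKNBE2 cells expressing wild-type APP695 were incubated overnight at 37° C. with test compound. Secreted Aβ42 was then measured by AlphaLISA, using a C-terminal Aβ42 antibody paired with an N-terminal Aβ antibody. IC50 came from a 4-parameter fit of percent of compound-free control.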

Compound	IC50 [1] [nM]	IC50 [2] [nM]	IC50 ([1]; Homo sapiens) [nM]	IC50 ([2]; Homo sapiens) [nM]
COc1cc(-c2nc(-c3ccccc3Cl)n(CC3CC3)n2)ccc1-n1cnc(C)c1 [Compound 85]	> 10000	309	–	–
COc1cc(-c2nc(Nc3c(F)ccc(Cl)c3F)n(C)n2)ccc1-n1cnc(C)c1 [Compound 122]	> 15000	66	–	–
COc1cc(-c2nc(C)n(-c3ccccc3C(F)(F)F)n2)ccc1-n1cnc(C)c1 [Compound 19]	–	–	> 10000	162
COc1cc(-c2nc(Nc3cc(F)c(F)c(F)c3)nn2C)ccc1-n1cnc(C)c1 [Compound 61]	> 10000	4790	–	–
COc1cccc(-c2n[nH]c(-c3ccc(-n4cnc(C)c4)c(OC)c3)n2)c1 [Compound 55]	> 10000	234	–	–
COc1cc(-c2nc(N3CC(C)OC(C)C3)n(C)n2)ccc1-n1cnc(C)c1 (stereo not drawn) [Compound 35]	> 10000	776	–	–
COc1cc(-c2nc(C(C)(O)c3cccc(C(F)(F)F)c3)n(C(C)C)n2)ccc1-n1cnc(C)c1 (stereo not drawn) [Compound 89]	–	–	7940	501
COc1cc(-c2nc(Nc3ccc(Cl)cc3C(F)(F)F)n(C)n2)ccc1-n1cnc(C)c1 [Compound 156]	> 10000	33	–	–
COc1cc(-c2nc(Nc3cc(F)c(C(F)(F)F)cc3F)n(C)n2)ccc1-n1cnc(C)c1 [Compound 141]	> 10000	47	–	–
COc1cc(-c2nc(Nc3cccc(C(F)(F)F)c3)n(CC(F)(F)F)n2)ccc1-n1cnc(C)c1 [Compound 145]	2240	38	–	–
COc1cc(-c2nc(C(=O)c3cccc(C(F)(F)F)c3)n(C(C)C)n2)ccc1-n1cnc(C)c1 [Compound 91]	–	–	> 10000	2340
COc1cc(-c2nc(-c3cccc(C(F)(F)F)c3)nn2C)ccc1-n1cnc(C)c1 [Compound 8]	> 10000	4270	–	–
COc1cc(-c2nc(N3CCCC3)n(C(C)c3ccc(F)cc3)n2)ccc1-n1cnc(C)c1 (racemic) [Compound 76]	12600	851	–	–
COc1cc(-c2nc(-c3ccccc3Cl)nn2C)ccc1-n1cnc(C)c1 [Compound 23]	> 10000	5010	–	–
COc1cc(-c2nc(Nc3cc(Cl)ccc3C)n(C)n2)ccc1-n1cnc(C)c1 [Compound 174]	7410	20	–	–
COc1cc(-c2nc(Nc3cc(F)ccc3Cl)n(C)n2)ccc1-n1cnc(C)c1 [Compound 113]	> 10000	60	–	–
COc1cc(-c2nc3n(n2)CCOC3c2cc(OC(F)(F)F)ccc2F)ccc1-n1cnc(C)c1 (stereo not drawn) [Compound 165]	> 10000	138	–	–
COc1cccc(-c2nc(-c3ccc(-n4cnc(C)c4)c(OC)c3)n(C)n2)c1 [Compound 56]	> 10000	> 10000	–	–
COc1cc(-c2nc(Nc3ccc(C(F)(F)F)cc3)n(C)n2)ccc1-n1cnc(C)c1 [Compound 151]	4070	27	–	–
COc1cc(-c2nc(Nc3ccc(F)cc3Cl)n(C)n2)ccc1-n1cnc(C)c1 [Compound 109]	> 10000	117	–	–
COc1cc(-c2nc(Nc3cc(Cl)cc(Cl)c3)n(C)n2)ccc1-n1cnc(C)c1 [Compound 115]	> 10000	102	–	–
COc1cc(-c2nc(Nc3cccc(C#N)c3)n(C)n2)ccc1-n1cnc(C)c1 [Compound 224]	> 10000	646	–	–
COc1cc(-c2nc(Nc3cc(C(F)(F)F)ccc3C)n(C)n2)ccc1-n1cnc(C)c1 [Compound 131]	6310	8	–	–
COc1cc(-c2nc(C(C)C)n(-c3ccc(F)cc3)n2)ccc1-n1cnc(C)c1 [Compound 31]	> 10000	447	–	–
COc1nc(-c2nc(Nc3ccccc3F)n(C)n2)ccc1-n1cnc(C)c1 [Compound 107]	> 10000	148	–	–
COc1cc(-c2nc(N[C@@H](C)c3ccc(F)cc3)n(C)n2)ccc1-n1cnc(C)c1 [Compound 51]	> 10000	324	–	–
COc1cc(-c2nc(N(C)c3ccc(F)cc3C(F)(F)F)nn2C)ccc1-n1cnc(C)c1 [Compound 53]	> 10000	> 10000	–	–
COc1cccc(-c2nc(-c3ccc(-n4cnc(C)c4)c(OC)c3)nn2C(C)C)c1 [Compound 37]	11200	85	–	–

Next, values leading:

IC50 [1] [nM]	IC50 [2] [nM]	IC50 ([1]; Homo sapiens) [nM]	IC50 ([2]; Homo sapiens) [nM]	Compound
> 10000	200	–	–	COc1cc(-c2nc(Nc3ccccc3)n(C)n2)ccc1-n1cnc(C)c1 [Compound 335]
> 10000	182	–	–	COc1cc(-c2nc(N3CCOc4ccccc43)n(C)n2)ccc1-n1cnc(C)c1 [Compound 325]
> 10000	1700	–	–	COc1cc(-c2nc(Nc3cc(C(=O)N(C)C)ccc3F)n(C)n2)ccc1-n1cnc(C)c1 [Compound 308]
> 10000	234	–	–	COc1cc(-c2nc3n(n2)CCC[C@@H]3c2ccccc2Cl)ccc1-n1cnc(C)c1 [Compound 254]
> 10000	240	–	–	COc1c(-n2cnc(C)c2)ccc(-c2nc(Nc3ccccc3C)n(C)n2)c1F [Compound 318]
> 10000	263	–	–	COc1cc(-c2nc(-c3cc(Cl)ccc3C)n[nH]2)ccc1-n1cnc(C)c1 [Compound 297]
> 3000	74	–	–	COc1cc(-c2nc3n(n2)CCCC3c2ccccc2OC(F)(F)F)ccc1-n1cnc(C)c1 (stereo not drawn) [Compound 266]
7410	186	–	–	COc1cc(-c2nc(CNc3cccc(C(F)(F)F)c3)n(C)n2)ccc1-n1cnc(C)c1 [Compound 311]
–	–	> 10000	62	COc1cc(-c2nc3n(n2)CCOC3c2ccccc2C(F)(F)F)ccc1-n1cnc(C)c1 (stereo not drawn) [Compound 279]
> 10000	3160	–	–	COc1cc(-c2nc(Nc3cccnc3)n(C)n2)ccc1-n1cnc(C)c1 [Compound 237]
> 10000	355	–	–	COc1cc(-c2nc3c(-c4cccc(OC(F)(F)F)c4)cccn3n2)ccc1-n1cnc(C)c1 [Compound 287]
> 10000	56	–	–	COCc1ccc(F)c(Nc2nc(-c3ccc(-n4cnc(C)c4)c(OC)c3)nn2C)c1 [Compound 331]
> 10000	51	–	–	COc1cc(-c2nc(Nc3c(C)cccc3F)n(C)n2)ccc1-n1cnc(C)c1 [Compound 323]
> 10000	26	–	–	COc1cc(-c2nc3n(n2)CCC[C@H]3c2ccc(F)cc2C)ccc1-n1cnc(C)c1 [Compound 333]
> 10000	955	–	–	COc1cc(-c2nc(Nc3ccnc(Cl)c3)n(C)n2)ccc1-n1cnc(C)c1 [Compound 234]
> 10000	288	–	–	COc1cc(-c2nc3n(n2)CCC[C@@H]3c2ccc(F)cc2C)ccc1-n1cnc(C)c1 [Compound 314]
> 10000	257	–	–	COc1cc(-c2nc(N3CCCc4ccccc43)n(C)n2)ccc1-n1cnc(C)c1 [Compound 349]
> 10000	661	–	–	COc1cc(-c2nc3n(n2)CCOC3c2ccccc2C(F)(F)F)ccc1-n1cnc(C)c1 (stereo not drawn) [Compound 316]
> 10000	49	–	–	COc1cc(-c2nc3n(n2)CCCC3c2cccc(OC(F)(F)F)c2)ccc1-n1cnc(C)c1 (stereo not drawn) [Compound 267]
> 10000	417	–	–	COc1cc(-c2nc(Nc3cc(C#N)ccc3F)n(C)n2)ccc1-n1cnc(C)c1 [Compound 226]
